Results from patent US8748415B2 (priority 2011, dated 2014).

Tested on: recombinant NL4-3 virus (Renilla luciferase in nef, Gag P373S)
Experiment: HIV cell culture assay (luciferase activity in MT-2 cells infected with NLRluc recombinant virus)
Assay type: cell-based
Conditions: NL43, MT-2 cells infected 4-5 days with NLRluc recombinant virus, class symbol
Method in brief: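 Activity was read as luciferase output (Dual Luciferase reagents premixed with lysis solution) after 4–5 days of infection in serially diluted inhibitor. Host cells were MT-2 in 10% FBS RPMI. The reporter virus came from transfected 293T cells and was titered on MT-2.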

| Compound | EC50 [nM] |
| --- | --- |
| C=C(C)[C@@H]1CC[C@]2(CNCCN3CCC(F)(F)CC3)CC[C@]3(C)[C@H](CC[C@@H]4[C@@]5(C)CC=C(c6ccc(C(=O)O)cc6)C(C)(C)[C@@H]5CC[C@]43C)[C@@H]12 [Example 48, 4-((1R,3aS,5aR,5bR,7aR,11aS,11bR,13aR,13bR)-3a-((2-(4,4-difluoropiperidin-1-yl)ethylamino)methyl)-5a,5b,8,8,11a-pentamethyl-1-(prop-1-en-2-yl)-2,3,3a,4,5,5a,5b,6,7,7a,8,11,11a,11b,12,13,13a,13b-octadecahydro-1H-cyclopenta[a]chrysen-9-yl)benzoic acid] | < 100 |
| C=C(C)[C@@H]1CC[C@]2(CN[C@@H](CC(=O)OC)C(=O)OC)CC[C@]3(C)[C@H](CC[C@@H]4[C@@]5(C)CC=C(c6ccc(C(=O)O)cc6)C(C)(C)[C@@H]5CC[C@]43C)[C@@H]12 [Example 49, 4-((1R,3aS,5aR,5bR,7aR,11aS,11bR,13aR,13bR)-3a-(((S)-1,4-dimethoxy-1,4-dioxobutan-2-ylamino)methyl)-5a,5b,8,8,11a-pentamethyl-1-(prop-1-en-2-yl)-2,3,3a,4,5,5a,5b,6,7,7a,8,11,11a,11b,12,13,13a,13b-octadecahydro-1H-cyclopenta[a]chrysen-9-yl)benzoic acid] | < 100 |
| C=C(C)[C@@H]1CC[C@]2(CNC3(C(=O)O)CC3)CC[C@]3(C)[C@H](CC[C@@H]4[C@@]5(C)CC=C(c6ccc(C(=O)O)cc6)C(C)(C)[C@@H]5CC[C@]43C)[C@@H]12 [Example 50, 4-((1R,3aS,5aR,5bR,7aR,11aS,11bR,13aR,13bR)-3a-((1-carboxycyclopropylamino)methyl)-5a,5b,8,8,11a-pentamethyl-1-(prop-1-en-2-yl)-2,3,3a,4,5,5a,5b,6,7,7a,8,11,11a,11b,12,13,13a,13b-octadecahydro-1H-cyclopenta[a]chrysen-9-yl)benzoic acid] | < 100 |
| C=C(C)[C@@H]1CC[C@]2(CNC3(C(=O)OC)CC3)CC[C@]3(C)[C@H](CC[C@@H]4[C@@]5(C)CC=C(c6ccc(C(=O)O)cc6)C(C)(C)[C@@H]5CC[C@]43C)[C@@H]12 [Example 51, 4-((1R,3aS,5aR,5bR,7aR,11aS,11bR,13aR,13bR)-3a-((1-(methoxycarbonyl)cyclopropylamino)methyl)-5a,5b,8,8,11a-pentamethyl-1-(prop-1-en-2-yl)-2,3,3a,4,5,5a,5b,6,7,7a,8,11,11a,11b,12,13,13a,13b-octadecahydro-1H-cyclopenta[a]chrysen-9-yl)benzoic acid] | < 100 |
| C=C(C)[C@@H]1CC[C@]2(CNC3(CN(CC)CC)CC3)CC[C@]3(C)[C@H](CC[C@@H]4[C@@]5(C)CC=C(c6ccc(C(=O)O)cc6)C(C)(C)[C@@H]5CC[C@]43C)[C@@H]12 [Example 52, 4-((1R,3aS,5aR,5bR,7aR,11aS,11bR,13aR,13bR)-3a-((1-((diethylamino)methyl)cyclopropylamino)methyl)-5a,5b,8,8,11a-pentamethyl-1-(prop-1-en-2-yl)-2,3,3a,4,5,5a,5b,6,7,7a,8,11,11a,11b,12,13,13a,13b-octadecahydro-1H-cyclopenta[a]chrysen-9-yl)benzoic acid] | < 100 |
| C=C(C)[C@@H]1CC[C@]2(CNCc3ccoc3)CC[C@]3(C)[C@H](CC[C@@H]4[C@@]5(C)CC=C(c6ccc(C(=O)O)cc6)C(C)(C)[C@@H]5CC[C@]43C)[C@@H]12 [Example 53, 4-((1R,3aS,5aR,5bR,7aR,11aS,11bR,13aR,13bR)-3a-((furan-3-ylmethylamino)methyl)-5a,5b,8,8,11a-pentamethyl-1-(prop-1-en-2-yl)-2,3,3a,4,5,5a,5b,6,7,7a,8,11,11a,11b,12,13,13a,13b-octadecahydro-1H-cyclopenta[a]chrysen-9-yl)benzoic acid] | < 100 |
| C=C(C)[C@@H]1CC[C@]2(CNCCCC(=O)N3CCS(=O)(=O)CC3)CC[C@]3(C)[C@H](CC[C@@H]4[C@@]5(C)CC=C(c6ccc(C(=O)O)cc6)C(C)(C)[C@@H]5CC[C@]43C)[C@@H]12 [Example 54, 4-((1R,3aS,5aR,5bR,7aR,11aS,11bR,13aR,13bR)-3a-(((4-(1,1-dioxido-4-thiomorpholinyl)-4-oxobutyl)amino)methyl)-1-isopropenyl-5a,5b,8,8,11a-pentamethyl-2,3,3a,4,5,5a,5b,6,7,7a,8,11,11a,11b,12,13,13a,13b-octadecahydro-1H-cyclopenta[a]chrysen-9-yl)benzoic acid] | < 100 |
| C=C(C)[C@@H]1CC[C@]2(CNCCCn3ccnc3)CC[C@]3(C)[C@H](CC[C@@H]4[C@@]5(C)CC=C(c6ccc(C(=O)O)cc6)C(C)(C)[C@@H]5CC[C@]43C)[C@@H]12 [Example 55, 4-((1R,3aS,5aR,5bR,7aR,11aS,11bR,13aR,13bR)-3a-((3-(1H-imidazol-1-yl)propylamino)methyl)-5a,5b,8,8,11a-pentamethyl-1-(prop-1-en-2-yl)-2,3,3a,4,5,5a,5b,6,7,7a,8,11,11a,11b,12,13,13a,13b-octadecahydro-1H-cyclopenta[a]chrysen-9-yl)benzoic acid] | < 100 |
| C=C(C)[C@@H]1CC[C@]2(CNCCCN3CCN(C)CC3)CC[C@]3(C)[C@H](CC[C@@H]4[C@@]5(C)CC=C(c6ccc(C(=O)O)cc6)C(C)(C)[C@@H]5CC[C@]43C)[C@@H]12 [Example 56, 4-((1R,3aS,5aR,5bR,7aR,11aS,11bR,13aR,13bR)-5a,5b,8,8,11a-pentamethyl-3a-((3-(4-methylpiperazin-1-yl)propylamino)methyl)-1-(prop-1-en-2-yl)-2,3,3a,4,5,5a,5b,6,7,7a,8,11,11a,11b,12,13,13a,13b-octadecahydro-1H-cyclopenta[a]chrysen-9-yl)benzoic acid] | < 100 |
| C=C(C)[C@@H]1CC[C@]2(CNCCN(C(C)C)C(C)C)CC[C@]3(C)[C@H](CC[C@@H]4[C@@]5(C)CC=C(c6ccc(C(=O)O)cc6)C(C)(C)[C@@H]5CC[C@]43C)[C@@H]12 [Example 57, 4-((1R,3aS,5aR,5bR,7aR,11aS,11bR,13aR,13bR)-3a-((2-(diisopropylamino)ethylamino)methyl)-5a,5b,8,8,11a-pentamethyl-1-(prop-1-en-2-yl)-2,3,3a,4,5,5a,5b,6,7,7a,8,11,11a,11b,12,13,13a,13b-octadecahydro-1H-cyclopenta[a]chrysen-9-yl)benzoic acid] | < 100 |
| C=C(C)[C@@H]1CC[C@]2(CNCCCN3CCCC3=O)CC[C@]3(C)[C@H](CC[C@@H]4[C@@]5(C)CC=C(c6ccc(C(=O)O)cc6)C(C)(C)[C@@H]5CC[C@]43C)[C@@H]12 [Example 58, 4-((1R,3aS,5aR,5bR,7aR,11aS,11bR,13aR,13bR)-5a,5b,8,8,11a-pentamethyl-3a-((3-(2-oxopyrrolidin-1-yl)propylamino)methyl)-1-(prop-1-en-2-yl)-2,3,3a,4,5,5a,5b,6,7,7a,8,11,11a,11b,12,13,13a,13b-octadecahydro-1H-cyclopenta[a]chrysen-9-yl)benzoic acid] | < 100 |
| C=C(C)[C@@H]1CC[C@]2(CNCCn3ccnc3C)CC[C@]3(C)[C@H](CC[C@@H]4[C@@]5(C)CC=C(c6ccc(C(=O)O)cc6)C(C)(C)[C@@H]5CC[C@]43C)[C@@H]12 [Example 59, 4-((1R,3aS,5aR,5bR,7aR,11aS,11bR,13aR,13bR)-5a,5b,8,8,11a-pentamethyl-3a-((2-(2-methyl-1H-imidazol-1-yl)ethylamino)methyl)-1-(prop-1-en-2-yl)-2,3,3a,4,5,5a,5b,6,7,7a,8,11,11a,11b,12,13,13a,13b-octadecahydro-1H-cyclopenta[a]chrysen-9-yl)benzoic acid] | < 100 |
| C=C(C)[C@@H]1CC[C@]2(CNCCCN(CCO)CCO)CC[C@]3(C)[C@H](CC[C@@H]4[C@@]5(C)CC=C(c6ccc(C(=O)O)cc6)C(C)(C)[C@@H]5CC[C@]43C)[C@@H]12 [Example 60, 4-((1R,3aS,5aR,5bR,7aR,11aS,11bR,13aR,13bR)-3a-((3-(bis(2-hydroxyethyl)amino)propylamino)methyl)-5a,5b,8,8,11a-pentamethyl-1-(prop-1-en-2-yl)-2,3,3a,4,5,5a,5b,6,7,7a,8,11,11a,11b,12,13,13a,13b-octadecahydro-1H-cyclopenta[a]chrysen-9-yl)benzoic acid] | < 100 |
| C=C(C)[C@@H]1CC[C@]2(CNCCCNCCO)CC[C@]3(C)[C@H](CC[C@@H]4[C@@]5(C)CC=C(c6ccc(C(=O)O)cc6)C(C)(C)[C@@H]5CC[C@]43C)[C@@H]12 [Example 61, 4-((1R,3aS,5aR,5bR,7aR,11aS,11bR,13aR,13bR)-3a-((3-(2-hydroxyethylamino)propylamino)methyl)-5a,5b,8,8,11a-pentamethyl-1-(prop-1-en-2-yl)-2,3,3a,4,5,5a,5b,6,7,7a,8,11,11a,11b,12,13,13a,13b-octadecahydro-1H-cyclopenta[a]chrysen-9-yl)benzoic acid] | < 100 |
| C=C(C)[C@@H]1CC[C@]2(CNCCNCCO)CC[C@]3(C)[C@H](CC[C@@H]4[C@@]5(C)CC=C(c6ccc(C(=O)O)cc6)C(C)(C)[C@@H]5CC[C@]43C)[C@@H]12 [Example 62, 4-((1R,3aS,5aR,5bR,7aR,11aS,11bR,13aR,13bR)-3a-((2-(2-hydroxyethylamino)ethylamino)methyl)-5a,5b,8,8,11a-pentamethyl-1-(prop-1-en-2-yl)-2,3,3a,4,5,5a,5b,6,7,7a,8,11,11a,11b,12,13,13a,13b-octadecahydro-1H-cyclopenta[a]chrysen-9-yl)benzoic acid] | < 100 |
| C=C(C)[C@@H]1CC[C@]2(CNCCN3CCOCC3)CC[C@]3(C)[C@H](CC[C@@H]4[C@@]5(C)CC=C(c6ccc(C(=O)O)cc6)C(C)(C)[C@@H]5CC[C@]43C)[C@@H]12 [Example 63, 4-((1R,3aS,5aR,5bR,7aR,11aS,11bR,13aR,13bR)-5a,5b,8,8,11a-pentamethyl-3a-((2-morpholinoethylamino)methyl)-1-(prop-1-en-2-yl)-2,3,3a,4,5,5a,5b,6,7,7a,8,11,11a,11b,12,13,13a,13b-octadecahydro-1H-cyclopenta[a]chrysen-9-yl)benzoic acid] | < 100 |
